Laboratory results from patent US10144746B2 (GLOBAL BLOOD THERAPEUTICS, INC., priority 2015, dated 2018).

Molecular target: Human plasma kallikrein (Homo sapiens (Human), UniProt P03952)
Assay: In vitro plasma kallikrein inhibition assay (chromogenic substrate D-Pro-Phe-Arg-pNa, absorbance at 405 nm, IC50 determination)
Type: biochemical
Details: for IC50: read-out: KLKB1 pIC50 (converted)

Human plasma kallikrein, sequence (P03952 391-638): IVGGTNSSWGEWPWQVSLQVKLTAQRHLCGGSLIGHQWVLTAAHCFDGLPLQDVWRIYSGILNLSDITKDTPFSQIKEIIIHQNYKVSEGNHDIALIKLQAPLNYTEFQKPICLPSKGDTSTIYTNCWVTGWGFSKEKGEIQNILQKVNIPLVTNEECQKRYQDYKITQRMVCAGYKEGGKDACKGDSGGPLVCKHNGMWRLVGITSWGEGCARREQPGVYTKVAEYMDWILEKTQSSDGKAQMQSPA
Human plasma kallikrein, sequence (P03952 20-390 partner): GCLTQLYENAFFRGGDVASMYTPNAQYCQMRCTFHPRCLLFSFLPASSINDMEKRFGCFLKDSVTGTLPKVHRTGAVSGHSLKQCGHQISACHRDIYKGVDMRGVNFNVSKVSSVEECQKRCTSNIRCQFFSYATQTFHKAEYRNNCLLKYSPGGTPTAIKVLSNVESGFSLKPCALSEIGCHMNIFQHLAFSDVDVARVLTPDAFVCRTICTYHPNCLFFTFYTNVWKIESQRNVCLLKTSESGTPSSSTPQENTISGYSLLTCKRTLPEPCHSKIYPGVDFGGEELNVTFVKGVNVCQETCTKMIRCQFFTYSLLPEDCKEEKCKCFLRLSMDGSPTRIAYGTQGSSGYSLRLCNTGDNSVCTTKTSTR

Compound	IC50	KLKB1 pIC50
CCOc1cc(N)nc(C)c1CNC(=O)c1ccc2c(c1)C1OC2c2ccc(-c3c(C)cc(F)cc3F)cc21 (racemic) [Example 151, (±)-N-[(6-amino-4-ethoxy-2-methylpyridin-3-yl)-methyl]-12-(2,4-difluoro-6-methylphenyl)-15-oxatetracyclo[6.6.1.0^2,^7.0^9,1^4] pentadeca-2,4,6,9,11,13-hexaene-4-carboxamide]	195 nM	–
CON=C(N)c1cc(F)c(CNC(=O)c2ccc3c(c2)[C@@H]2O[C@H]3c3ccc(-c4nccs4)cc32)c(F)c1 [Example 274]	–	5.86
Cc1cc(N)nc(C)c1CNC(=O)c1ccc2c(c1)[C@@H]1O[C@H]2c2ccc(Cn3ccccc3=O)cc21 (single isomer, unassigned) [Example 224]	1 nM	–
Cc1cc(N)nc(C)c1CNC(=O)c1ccc2c(c1)C1OC2c2cc(-c3ccccc3)c(-c3ccccc3)cc21 (racemic) [Example 314, (±)-N-[(6-amino-2,4-dimethyl-pyridin-3-yl)-methyl]-11,12-diphenyl-15-oxatetracyclo-[6.6.1.0^2,^7.0^9,1^4]pentadeca-2,4,6,9,11,13-hexaene-4-carboxamide]	871 nM	–
CC(C)(O)c1ccc2c(c1)[C@H]1O[C@@H]2c2ccc(C(=O)NCc3ccc(C(=N)N)cc3)cc21 (single isomer, unassigned) [Example 277]	35.5 nM	–
Cc1c(CNC(=O)c2ccc3c(c2)C2OC3c3ccc(Cn4cccn4)cc32)c(F)cc2c1CNC2 (racemic) [Example 160, (±)-N-[(6-fluoro-4-methyl-2,3-dihydro-1H-isoindol-5-yl)methyl]-12-[(1H-pyrazol-1-yl)methyl]-15-oxatetracyclo [6.6.1.0^2,^7.0^9,1^4]-pentadeca-2,4,6,9,11,13-hexaene-4-carboxamide]	120 nM	–

Continued, in another order:

IC50	Compound	KLKB1 pIC50
676 nM	COc1ncccc1-c1ccc2c(c1)[C@H]1O[C@@H]2c2ccc(C(=O)NCc3c(C)cc(N)nc3C)cc21 (single isomer, unassigned) [Example 213]	–
2 nM	N=C(N)c1ccc(CNC(=O)c2ccc3c(c2)[C@@H]2O[C@H]3c3ccc(N4CCCC4)cc32)cc1 (single isomer, unassigned) [Example 236]	–
437 nM	Cc1cc(N)nc(C)c1CNC(=O)c1ccc2c(c1)C1OC2c2ccc(-c3ccc(F)c(C(F)(F)F)c3)cc21 (racemic) [Example 121, (±)-N-[(6-amino-2,4-dimethylpyridin-3-yl)-methyl]-12-[4-fluoro-3-(trifluoromethyl)phenyl]-15-oxatetracyclo [6.6.1.0^2,^7.0^9,1^4]pentdeca-2,4,6,9,11,13-hexaene-4-carboxamide]	–
22.9 nM	Cc1cc(N)nc(C)c1CNC(=O)c1ccc2c(c1)C1OC2c2ccc(-c3ccc(Cl)c(F)c3F)cc21 (racemic) [Example 106]	–
117 nM	COc1ccc(-c2ccc3c(c2)[C@H]2O[C@@H]3c3ccc(C(=O)NCc4c(C)cc(N)nc4C)cc32)c(F)n1 (single isomer, unassigned) [Example 177]	–
